Laboratory results reported in PubChem BioAssay (NCI).
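Exposure lasted 48 hours, with cells grown in 96-well plates and compounds tested at five concentrations. GI50: concentration for 50% inhibition of growth. Definition used: TGI = concentration required for complete inhibition of growth.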

Columns and labels:
Test in all cases: inhibition of tumour cell growth, NCI panel, 48 h
786-0 renal = test system: 786-0 renal
HOP-92 NSCLC = test system: HOP-92 NSCLC
LOX IMVI melanoma = test system: LOX IMVI melanoma
NCI-H23 lung = test system: NCI-H23 lung
OVCAR-4 ovarian = test system: OVCAR-4 ovarian
OVCAR-8 ovarian = test system: OVCAR-8 ovarian
PC-3 prostate = test system: PC-3 prostate
SK-MEL-2 melanoma = test system: SK-MEL-2 melanoma

SMILES | TGI (786-0 renal) [µM] | TGI (HOP-92 NSCLC) [µM] | TGI (LOX IMVI melanoma) [µM] | TGI (NCI-H23 lung) [µM] | TGI (OVCAR-4 ovarian) [µM] | TGI (OVCAR-8 ovarian) [µM] | TGI (PC-3 prostate) [µM] | TGI (SK-MEL-2 melanoma) [µM] | GI50 (786-0 renal) [µM] | GI50 (HOP-92 NSCLC) [nM] | GI50 (LOX IMVI melanoma) [nM] | GI50 (NCI-H23 lung) [µM] | GI50 (OVCAR-8 ovarian) [µM] | GI50 (PC-3 prostate) [µM] | GI50 (SK-MEL-2 melanoma) [µM] | GI50 (OVCAR-4 ovarian) [µM]
Cc1cc(Cl)ccc1NC(=O)/C(Cc1nc2ccc(C(=O)c3ccccc3)cc2[nH]c1=O)=N/NC(=O)c1ccncc1 | > 100 | > 100 | > 100 | > 100 | > 100 | > 100 | > 100 | > 100 |  |  |  |  |  |  |  | 
CCOC(=O)c1[nH]c2cccc3c2c1CC(Br)C3=O (centres undefined) | 17.3 | 33.6 | 31.8 | 35.9 |  | 41.5 | 33 |  |  |  |  |  |  |  |  | 
CC1=C(C(=O)Nc2ccc(F)c(Cl)c2)C(c2cccc(O)c2)NC(=S)N1 (centres undefined) | > 50 | > 50 | 41 | > 50 |  | > 50 | > 50 | > 50 | 19.1 | > 50000 | 13700 | 19.2 | 28.5 | 32.1 | 20.3 | 
CN(C)CCCNC(=O)c1cc(NC(=O)c2cc(NC(=O)CCCN3c4ccccc4C=Cc4ccccc43)cn2C)cn1C | > 100 | 78.7 |  | 54.8 | 97.4 | 72.2 | > 100 |  | 11.4 | 10000 |  | 10.6 | 17.3 | 5.33 |  | 23.2
C[C@@H](Oc1cc(-c2cnn(C3CCNCC3)c2)cnc1N)c1c(Cl)ccc(F)c1Cl | 8.94 | 2.62 | 2.64 | > 10 | > 10 | > 10 | > 10 | 4.54 | 2.72 | 236 | 1170 | 0.93 | 2.86 | 1.35 | 1.82 | 
CS(=O)(=O)c1ccc(Oc2nccc(-c3c(-c4ccc(F)cc4)ncn3C3CCNCC3)n2)cc1 | > 25 |  | > 25 |  | > 25 | > 25 | > 25 | > 25 | > 25 |  | > 25000 |  | > 25 | > 25 | > 25 | > 25
CCN(Cc1ccc(F)cc1F)c1ccc(CO)c(Cl)c1 | 29 | 16.5 | 29 | 24.3 | 1.65 | 41.3 | 49.2 | 21.3 | 5.91 | 1180 | 14400 | 9.05 | 12.9 | 16.3 | 5.36 | 0.218
CC(C)(C)[Si](C)(C)OC1[C@@H](O[Si](C)(C)C(C)(C)C)[C@@H](CNC(=O)NC(=O)NC(=O)CI)O[C@H]1n1cnc2c(NC(=O)Nc3ccccc3)ncnc21 (some centres undefined) | 1.08 |  | 0.155 | 1.09 | 2.36 | 0.925 | 3.42 | 17.7 | 0.357 |  | 86.4 | 0.187 | 0.275 | 0.385 | 8.07 | 0.665
COC(=O)C/C(C)=C/[C@@H](O)[C@H]1O[C@@H]2CC/C(Cl)=C/C/C=C(/C)[C@H](OC(C)=O)CC(=O)O[C@@H]1C2 | 2.53 |  | 11.2 | 7.74 |  | > 25 | 4.13 | 9.62 | 0.708 |  | 1970 | 1.14 | 4.73 | 1.08 | 0.581 | 
C=C(CN1CCc2ccccc2C1)c1ccc(/C=C/C(=O)Nc2ccccc2N)cc1 | 24.4 | 52.8 | 16.5 | > 100 | > 100 | > 100 | > 100 | > 100 | 3.81 | 8000 | 3090 | 9.55 | 5.86 | 4.05 | 7.51 | 45.4
c1ccc(Oc2c3ccccc3nc3ccccc23)cc1 | 10.7 | 8.63 | 11.8 | 14.3 | 21.2 | 24.8 | 15.8 | 17.6 | 3.08 | 2240 | 1730 | 3.71 | 6.22 | 4.91 | 3.95 | 4.33
O=P(Oc1ccccc1)(Oc1ccccc1)C(O)c1ccccc1 (centres undefined) | > 100 |  | > 100 | > 100 | > 100 | > 100 | > 100 | > 100 | > 100 |  | > 100000 | > 100 | > 100 | 35.8 | 81.4 | 58.2
CC(C)SC1SCC2C(=O)N(C)C3(CC3C)C(=O)OCC(NC(=O)c3nc4ccccc4cc3O)C(=O)NC(C)C(=O)N(C)C1C(=O)N(C)C1(CC1C)C(=O)OCC(NC(=O)c1nc3ccccc3cc1O)C(=O)NC(C)C(=O)N2C (centres undefined) | < 0.0001 | < 0.0001 | < 0.0001 | < 0.0001 | < 0.0001 |  | < 0.0001 |  |  |  |  |  |  |  |  | 
O=C1CCCSCCCC(=O)CCCSCCC1 | > 100 | > 100 | > 100 | > 100 | > 100 | > 100 | > 100 |  |  |  |  |  |  |  |  | 
O=C(Oc1cccc(Nc2ncnc3ccccc23)c1)c1ccccc1Cl | 71.9 |  | 36.2 | 31.8 | > 100 | 59.1 | 45.9 |  | 20.8 |  | 15800 | 13 | 20.2 | 17.8 |  | 48.9
Cc1ccc(C)c(-n2c(-c3ccc(Br)cc3)csc2=NC(=O)c2ccccc2F)c1 | > 100 |  | > 100 |  | > 100 | > 100 | > 100 | > 100 | > 100 |  | > 100000 |  | > 100 | 3.29 | > 100 | 9.57
O=c1oc2ccccc2c(Cl)c1Cl | 18.7 | 18.6 | 12.4 | 18.9 | 19.6 | 17.4 | 24.5 |  | 5.82 | 5710 | 1760 | 5.56 | 4.23 | 7.51 |  | 6.76
NCCCn1c2c(c3ccccc3c1=O)C(=O)c1cc3c(cc1-2)OCO3 | 3.1 | 15.9 | 3.57 | 1.38 |  |  | 7.41 | 12.8 | 0.241 | 568 | 247 | 0.324 | 0.173 | 1.22 | 3.47 | 
